Reference: patent US12697349B2, “Compositions and methods for treating RAS-mutant cancers” (MEMORIAL SLOAN KETTERING CANCER CENTER, priority 2019, dated 2026)

Assays:
mPDAC cells = assay: In vitro growth inhibition by auranofin, CellTiter-Glo viable cell numbers; assay type: cell-based, murine; conditions: 72 hr, increasing doses, normalized to DMSO-treated cells
Description: (§1) Relative proliferation was calculated by measuring viable cell numbers, and normalizing to the viable cell numbers of DMSO-treated cells, which were set to 1. Relative proliferation was then plotted as a function of auranofin concentration and fit to an exponential curve.
(§2) Proliferation assays. Competitive proliferation assays using shRNAs in TRMPV-Neo vector (with miR-30 or miR-E backbone) were performed as described previously (Huang et al., Genes Dev. 28(16): 1800-1814 (2014)). Assays for in vitro growth inhibition by auranofin or piperlongumine were performed by counting the viable cell numbers using CellTiter-Glo Luminescent Cell Viability Assay (Promega) after incubation of cells in the presence of increasing concentrations of auranofin or piperlongumine for 72 hr. Proliferation rates were calculated by dividing viable cell numbers at 72 hr by the viable cell numbers at 0 hr. Relative proliferation rates were calculated by normalizing to the proliferation rate of vehicle-treated cells.
Auranofin is an inhibitor of enzymatic activity of TXNRD1 (See Gromer et al., J Biol Chem 273(32): 20096-20101). Myricetin, manumycin A and protoporphyrin IX are also inhibitors of enzymatic activity of TXNRD1. mPDAC cells were treated with the TXNRD1 inhibitor auranofin or DMSO for 72 hr, and viability was measured. DMSO treatment served as a negative control causing a lack of growth inhibition. […]

[1] = system: human pancreatic cancer cell lines (KRAS mutant and wild-type KRAS); assay: In vitro growth inhibition by auranofin or piperlongumine in a panel of pancreatic cancer cell lines; assay type: cell-based
Description: as §1, with “curve. L3.3, Colo357, and BXPC3 have wild-type KRAS, and rest of the cell lines harbor a KRAS mutation.” for “curve.”
Cancer cells harboring different KRAS mutations (G12C, G12D, G12V) or wild-type allele were assayed. Relative proliferation was calculated by measuring viable cell numbers, and normalizing to the viable cell numbers of DMSO-treated cells, which were set to 1. Relative proliferation was then plotted as a function of auranofin concentration and fit to an exponential curve.
as §2
Since the screening system discussed above and FIGS. 1A-3B was driven by mutant Kras, p53 loss and Myc overexpression, whether alterations in either gene could dictate sensitivity to TXNRD1 inhibition was investigated. Twelve pancreatic cancer cell lines were treated with increasing concentration of auranofin or DMSO. Among the cell lines used in this experiment L3.3, Colo357, and BXPC3 have wild-type KRAS. The cell lines PANC0327, MIAPaCa-2, PANC0213, ASPC1, 8898, CFPAC-1, L3.6pl, PANC1 and SU8686 harbored KRAS mutations.
To understand whether the observed difference between sensitivities of wild-type KRAS cells and KRAS mutant cells, was statistically significant, the IC50 data of the relative sensitivity of human PDAC cell lines to TXNRD1 inhibition by auranofin was compared. […] To understand the effect of KRAS mutations (G12C, G12D, G12V) on auranofin sensitivity, human pancreatic cancer cells harboring different KRAS mutations (G12C, G12D, G12V) or wild-type were treated with another TXNRD1 inhibitor piperlongumine.

[2] = system: KRas^G12D; p53^-/- pancreatic cancer organoid tumors; assay: In vivo drug treatment, KRas^G12D; p53^-/- pancreatic cancer organoids transplanted into the pancreas; design: species or system mice; conditions: 10 mg/kg, one per day, 5 days per week, intraperitoneal, 1 week, versus vehicle
Description: KRas^G12D; p53^−/− organoids were transplanted in recipient mice, and the mice were treated with vehicle only or auranofin (n=3-4) for 1 week. Tumor weights were measured and plotted.
(§3) In vivo drug treatment experiments. For auranofin treatment trials, 16 mg auranofin was first solved in 4 mL ethanol, and then diluted with 12 mL PBS to a final concentration of 1 mg/ml. Mice were given daily auranofin (10 mg/kg) or a similar volume of vehicle by intraperitoneal injection. The sick animals were sacrificed and pancreatic tissues and tumors were used for further analysis.
(§4) Growth inhibitory effects of pharmacological TXNRD1 inhibition was also examined in additional murine PDAC models generated by transplanting KRas^G12D; p53^−/− pancreatic cancer organoid lines into the pancreas of recipient mice. Mice were treated either with vehicle only, acting as a negative control, or auranofin. […] Thus, TXNRD1 is required for the maintenance of KRAS-mutant tumors and dependency in vivo.

MIAPaCa-2 (KRAS mutant) = assay: In vivo drug treatment, human xenograft model (KRAS mutant); design: species or system mice; conditions: auranofin 10 mg/kg intraperitoneal, 2 weeks, versus vehicle
Description: MIAPaCa-2 (KRAS mutant) or Colo357 (KRAS wild-type) organoids were transplanted into the pancreases of recipient mice. The mice were treated with vehicle only or auranofin (n=5) for 2 weeks. Tumor weights were measured and plotted.
as §3, §4

[3] = system: MIAPaCa-2 (KRAS^G12C) and PSN1 (KRAS^G12R) pancreatic cancer cell lines; assay: Drug combination growth inhibition and synergy analysis (CompuSyn, Combination Index); assay type: cell-based, human; conditions: KRAS-mutant pancreatic cancer cells MIAPaCa-2 and PSN1
Description: Data presented as mean of three independent experiments (n=3). […] Each CI score represents data from at least three independent experiments.
CompuSyn software (Version 1.0) (http://www.combosyn.com), which is based on the Median-Effect Principle and the Combination Index-Isobologram Theorem was used to analyze drug synergism. Combination index (CI) values CI>1 indicates antagonism; CI=0.75-1.25 indicates additive effects; and <1 indicates synergism. Each GI (Growth inhibition) or CI score represents data from at least three independent experiments.

Row | Compound | growth inhibition of mPDAC cells (relative proliferation) (mPDAC cells) | correlation of anti-proliferative response (IC50) with KRAS mutational status ([1]; human PDAC cell lines, n=12) | correlation of response (IC50) with p53 mutational status or MYC mRNA expression ([1]; human pancreatic cancer cell lines, n=9) | sensitivity to auranofin, KRAS mutant versus wild-type KRAS cells ([1]; twelve pancreatic cancer cell lines, 72 hours, increasing concentration) | tumor growth (tumor weights) [2] | tumor growth inhibition (tumor weights) (MIAPaCa-2 (KRAS mutant)) | antiproliferative effect [3] | sensitivity to piperlongumine, KRAS mutant versus wild-type KRAS cells ([1]; cells with KRAS G12C, G12D, G12V or wild-type, 72 hours)
1 | CC(=O)OC[C@H]1O[C@@H]([S-])[C@H](OC(C)=O)[C@@H](OC(C)=O)[C@@H]1OC(C)=O.CCP(CC)CC.[Au+] [auranofin] | inhibited growth of mPDAC cells at submicromolar concentration | significant correlation | no significant correlation | KRAS mutant cells were generally more sensitive to auranofin than the wild-type KRAS cells | triggered a delay in Kras-mutant tumor growth | growth inhibitory effects of pharmacological TXNRD1 inhibition was found | antiproliferative effects | 
2 | COc1cc(/C=C/C(=O)N2CCC=CC2=O)cc(OC)c1OC [piperlongumine] |  |  |  |  |  |  |  | KRAS mutant cells were more sensitive to piperlongumine than the wild-type KRAS cells
